Experimental findings from US20230043863A1, “HETEROAROMATIC DERIVATIVES FOR USE AS REGULATOR, PREPARATION METHOD THEREFOR AND USE THEREOF” (JIANGSU HANSOH PHARMACEUTICAL GROUP CO., LTD., priority 2018, published 2023) are described below.

Where two headings read alike, the source gives them in different places.

One series deals with JAK1 (Homo sapiens, UniProt P23458). The series is described as follows: JAK kinase activity inhibition, TR-FRET (JAK1). In kind it is biochemical. The following applies: TR-FRET kinase assay. The essentials: (§1)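 Steps: compound dilutions added; JAK kinase (0.1-20 nM) in HEPES/MgCl2 buffer added; peptide substrate and ATP mix started the reaction, 0.5-5 h at room temperature; EDTA and labeled antibody added, 1-24 h further. IC50 derived from 620/665 nm signals by four-parameter nonlinear fitting.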
In general terms: In TR-FRET formats the signal depends on donor and acceptor labels being close together.

The next series has as its target TYK2 (Homo sapiens, UniProt P29597). The series is described as follows: JAK kinase activity inhibition, TR-FRET (TYK2). The format is biochemical. The following applies: TR-FRET kinase assay. The essentials: as §1
In series [1] the test system is JAK-STAT signal pathway of U266 cells. Put plainly: Inhibition of cellular JAK-STAT signal pathway (STAT3 phosphorylation) in U266 cells. The format is cell-based, human. The following applies: Homo sapiens, U-266, INF-a 1000 U/mL stimulation. The protocol: The objective of the test is to test the inhibitory activity of the compound on the cellular JAK-STAT signaling pathway.
U266 cell line was used in this experiment, by activating the JAK-STAT signaling pathway through INF-a stimulation, the inhibitory activity of the compound on its downstream STAT3 phosphorylation was detected, and the half inhibitory concentration IC50 of the compound on the JAK-STAT signaling pathway activity was obtained.
3-12 μL of U266 cell line was spread into the 384-well detection plate, and the number of cells in each well was 100-300 K, followed by addition of 2 μL of the compound solution serially diluted. The plate was incubated for 2 hours with shaking at 350 rpm at room temperature. After 2 hours, 2 μL of INF-a with a final concentration of 1000 U/mL was added. The plate was shaken at room temperature for 15 minutes. 2-5 μL (5×) LANCE Ultra Lysis Buffer 2 solution was added and the plate was shaken at room temperature for 2 hours. After 2 hours, 5 μL of LANCE Ultra Eu-labeled Anti-STAT3 Antibody (PerkinElmer) with a final concentration of 0.5 nM and LANCE Ultra ULight-labeled Anti-STAT3 Antibody (PerkinElmer) with a final concentration of 5 nM were added, and the plate was incubated overnight at room temperature. The fluorescence signal value at 665 nm of each well was measured with the microplate reader, and the inhibition rate was calculated from the fluorescence signal value. According to the inhibition rate of different concentrations, the IC50 of the compound was obtained by curve fitting.
The percentage inhibition data of the wells treated with the compound was calculated with the positive control wells (DMSO control wells) and negative control wells (no kinase added) on the plate {% inhibition rate=100-[(test compound value-negative control value)]/(Positive control value-negative control value)×100}. IC50 value was calculated by using GraphPad prism to fit the data of different concentrations and corresponding percentage inhibition rates to a 4-parameter non-linear logic formula.

Series [2] in a line: Balb/C mouse pharmacokinetics (plasma, colon, ileum). The settings on record: male, po, Balb/C mice, p.o. 5 mg/kg; for Cmax: read-out: Blood concentration Cmax; for AUC(0-t): read-out: Curve area AUC0-t; for MRT: read-out: Mean detention time MRT; for Tmax: read-out: Time to peak tmax. The format is in vivo. The text has this: Balb/C mouse was used as the test animal, the pharmacokinetic behavior in mice (plasma and colon, ileum tissue) was studied after oral administering the embodiment 1, embodiment 60, embodiment 169, embodiment 170, embodiment 171, embodiment 179, embodiment 191, embodiment 213, embodiment 214, embodiment 237, embodiment 238, embodiment 244, embodiment 246, embodiment 247, embodiment 257, embodiment 260, embodiment 262, embodiment 263, embodiment 267, embodiment 277, embodiment 278, embodiment 279, embodiment 288, embodiment 295, embodiment 299 and embodiment 301 at a dose of 5 mg/kg. After analyzing the drug concentration in the colon and ileum, the ratio of the drug concentration in the colon to that in ileum, and the ratio of the drug concentration in the colon to that in the plasma, the compounds with excellent PK were selected for further research.
12 Balb/C mice in each group, male, Shanghai Jiesjie Experimental Animal Co., Ltd., animal production license number (SCXK (Shanghai) 2013-0006 N0.311620400001794).
12 Balb/C mice in each group, male; p.o. after one night fast; the dose was 5 mg/kg; the administration volume was 10 mL/kg.
At 0, 0.5, 1, 2, 3, 5 and 7 hours before and after the administration, the mice were executed by CO2 and 0.2 mL of blood was collected from the heart, placed in an EDTA-K2 test tube, and centrifuged at 6000 rpm at 4° C. for 6 minutes to separate the plasma, which was then stored at −80° C. The ileum was taken close to the cecum end with a length of about 4-5 cm, and the colon was also taken close to the cecum end with a length of about 2-3 cm, weighed and placed in a 2 mL centrifuge tube, then stored at −80° C.
1) 40 uL of plasma sample was precipitated by adding 160 uL of acetonitrile, mixed and centrifuged at 3500×g for 5-20 minutes.
2) 30 μL of plasma and intestinal homogenate sample were precipitated by adding 90 of acetonitrile containing internal standard (100 ng/mL), mixed and centrifuged at 13000 rpm for 8 minutes.
3) 70 μL of the supernatant solution after treatment was collected and 70 μL of water was added thereto, vortexed and mixed for 10 minutes, and then 20 μL was collected to analyze the concentration of the test compound by LC/MS/MS. LC/MS/MS analysis instrument: AB Sciex API 4000 Qtrap.
Liquid phase conditions: Shimadzu LC-20AD Pump
Chromatographic column: Agilent ZORBAX XDB-C18 (50×2.1 mm, 3.5 μm) mobile phase: 0.1% formic acid aqueous solution as A solution, acetonitrile as B solution
Elution time: 0-4.0 minutes, the eluent is as follows:
The main pharmacokinetic parameters were calculated with WinNonlin 6.1, and the results of mouse pharmacokinetic experiments are shown in Table 3:
NA refers to none detected or not being tested (the detection limit of blood concentration was 1 ng/mL, when the Cmax in the blood test is NA, then NA in the blood test index refers to none detected; when the Cmax in the blood test is higher than the quantitative limit 1 ng/mL, then NA in the blood test index refers to not being tested; NA in the tissues (colon and ileum) refers to not being tested).

Sequence of TYK2 (P29597 whole entry): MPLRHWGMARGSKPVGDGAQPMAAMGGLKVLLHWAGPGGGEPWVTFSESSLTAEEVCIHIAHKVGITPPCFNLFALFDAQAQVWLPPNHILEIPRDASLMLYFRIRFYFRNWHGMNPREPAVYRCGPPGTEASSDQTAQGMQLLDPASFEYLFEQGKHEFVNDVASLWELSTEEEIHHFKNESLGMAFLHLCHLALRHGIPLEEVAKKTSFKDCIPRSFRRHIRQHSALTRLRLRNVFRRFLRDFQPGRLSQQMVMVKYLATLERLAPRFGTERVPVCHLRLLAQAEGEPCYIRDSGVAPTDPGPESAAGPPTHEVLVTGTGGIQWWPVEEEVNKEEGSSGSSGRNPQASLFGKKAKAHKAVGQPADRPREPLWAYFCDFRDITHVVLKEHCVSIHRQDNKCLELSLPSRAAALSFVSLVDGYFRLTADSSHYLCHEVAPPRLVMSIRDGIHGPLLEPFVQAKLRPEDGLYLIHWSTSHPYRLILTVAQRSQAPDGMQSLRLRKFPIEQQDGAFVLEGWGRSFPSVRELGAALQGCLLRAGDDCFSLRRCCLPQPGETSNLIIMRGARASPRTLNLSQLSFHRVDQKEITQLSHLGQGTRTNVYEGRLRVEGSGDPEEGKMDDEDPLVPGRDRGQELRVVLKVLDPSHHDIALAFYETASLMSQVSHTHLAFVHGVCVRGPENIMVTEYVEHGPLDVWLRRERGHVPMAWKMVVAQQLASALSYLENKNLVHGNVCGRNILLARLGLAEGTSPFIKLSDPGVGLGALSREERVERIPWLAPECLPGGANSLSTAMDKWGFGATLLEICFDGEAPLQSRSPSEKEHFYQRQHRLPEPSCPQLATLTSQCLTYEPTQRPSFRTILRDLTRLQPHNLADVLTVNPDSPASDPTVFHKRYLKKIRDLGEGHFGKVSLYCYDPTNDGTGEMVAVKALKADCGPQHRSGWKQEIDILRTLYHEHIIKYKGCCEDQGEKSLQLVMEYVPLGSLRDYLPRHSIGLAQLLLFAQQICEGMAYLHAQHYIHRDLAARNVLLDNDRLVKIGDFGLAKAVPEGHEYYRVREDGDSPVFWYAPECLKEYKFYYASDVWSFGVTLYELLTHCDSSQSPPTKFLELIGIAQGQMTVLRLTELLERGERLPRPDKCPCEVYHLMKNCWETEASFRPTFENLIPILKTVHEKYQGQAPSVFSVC
Sequence of JAK1 (P23458 whole entry): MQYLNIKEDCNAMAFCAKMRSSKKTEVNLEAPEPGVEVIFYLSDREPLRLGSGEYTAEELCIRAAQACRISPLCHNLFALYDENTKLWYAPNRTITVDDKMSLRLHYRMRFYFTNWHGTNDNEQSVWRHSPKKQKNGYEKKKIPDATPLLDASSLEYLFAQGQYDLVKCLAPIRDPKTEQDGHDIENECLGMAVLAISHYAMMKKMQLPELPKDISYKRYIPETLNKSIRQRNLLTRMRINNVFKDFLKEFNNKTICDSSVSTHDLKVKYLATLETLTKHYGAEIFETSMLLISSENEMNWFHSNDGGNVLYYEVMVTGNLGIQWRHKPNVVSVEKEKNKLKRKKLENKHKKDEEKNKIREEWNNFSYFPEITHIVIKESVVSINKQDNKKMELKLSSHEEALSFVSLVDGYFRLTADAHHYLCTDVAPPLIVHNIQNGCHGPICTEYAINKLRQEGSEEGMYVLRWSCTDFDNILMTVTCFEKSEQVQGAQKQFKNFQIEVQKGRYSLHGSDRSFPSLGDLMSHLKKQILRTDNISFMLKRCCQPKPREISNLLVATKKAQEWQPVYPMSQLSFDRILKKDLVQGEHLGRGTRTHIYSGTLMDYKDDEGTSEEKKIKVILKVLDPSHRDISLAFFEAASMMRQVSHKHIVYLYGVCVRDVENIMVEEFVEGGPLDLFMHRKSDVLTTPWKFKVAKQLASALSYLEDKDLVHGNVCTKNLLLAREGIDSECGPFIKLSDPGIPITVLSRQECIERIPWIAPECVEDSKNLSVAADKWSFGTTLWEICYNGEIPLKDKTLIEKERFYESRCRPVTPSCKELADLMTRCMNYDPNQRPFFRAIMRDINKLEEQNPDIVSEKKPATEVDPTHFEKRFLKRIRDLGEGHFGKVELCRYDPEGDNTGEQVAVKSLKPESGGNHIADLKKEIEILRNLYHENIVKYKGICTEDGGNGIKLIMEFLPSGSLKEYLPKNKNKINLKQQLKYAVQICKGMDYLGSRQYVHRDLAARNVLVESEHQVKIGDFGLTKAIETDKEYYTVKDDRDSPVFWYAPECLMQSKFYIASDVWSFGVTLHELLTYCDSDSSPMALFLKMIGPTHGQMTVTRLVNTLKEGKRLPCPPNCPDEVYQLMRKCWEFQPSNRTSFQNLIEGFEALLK

`Cc1cc(Nc2nc(N[C@@H]3C[C@H]4CC[C@@H](C3)N4CCC#N)nc3cc(-c4cccnc4)ccc23)n[nH]1` [Embodiment 179, 3-((3-exo)-3-((4-((5-methyl-1H-pyrazol-3-yl)amino)-7-(pyridin-3-yl)quinazolin-2-yl)amino)-8-azabicyclo[3.2.1]oct-8-yl)propionitrile]: the IC50 turned out to be 0.44 nM on JAK1, 0.47 nM on TYK2 and 9.84 nM in series [1]. In addition, the Cmax in series [2] (plasma, blood) stood at 3.8 ng/mL; in series [2] (colon) it was 485 ng/mL; in series [2] (ileum) it was 2330 ng/mL. Further, the AUC(0-t) in series [2] (plasma, blood) is 6.76 ng·h/mL; in series [2] (colon), 2040 ng·h/mL; in series [2] (ileum), 10300 ng·h/mL. Moreover, the MRT in series [2] (plasma, blood) worked out at 1.66 h; in series [2] (colon), 2.83 h; in series [2] (ileum), 2.88 h. The Tmax was found to be 0.5 h in series [2] (plasma, blood); 1 h in series [2] (colon); 3 h in series [2] (ileum). Moreover, the AUC(0-inf) in series [2] (colon, read-out: Curve area AUC0-∞) amounted to 2180 ng·h/mL. Also, the half-life in series [2] (colon, read-out: Half life period t1/2 (converted)) is 1.49 h.

For `Cc1cc(Nc2nc(N[C@@H]3C[C@H]4CCC[C@@H](C3)N4C(=O)[C@H]3COCCN3)nc3sccc23)n[nH]1` [Embodiment 250, ((3-exo)-3-((4-((5-methyl-1H-pyrazol-3-yl)amino)thieno[2,3-d]pyrimidin-2-yl)amino)-9-azabicyclo[3.3.1]non-9-yl)((R)-morpholine-3-yl)methanone], the IC50 at JAK1 stood at 0.04 nM; at TYK2 it was 0.07 nM; in series [1], 7.3 nM.

Regarding `Cc1cc(Nc2nc(N(C)[C@@H]3C[C@H]4CC[C@@H](C3)N4S(=O)(=O)N3CC(C#N)C3)nc3sc(C)cc23)n[nH]1` [Embodiment 240, 1-(((3-exo)-3-(methyl(6-methyl-4-((5-methyl-1H-pyrazol-3-yl)amino)thieno[2,3-d]pyrimidin-2-yl)amino)-8-azabicyclo[3.2.1]oct-8-yl)sulfonyl)azetindin-3-formonitrile], the half-inhibitory concentration (IC50) amounted to 0.49 nM at JAK1, 0.68 nM on TYK2 and 14.4 nM in series [1].

`Cc1cc(Nc2nc(N[C@@H]3C[C@H]4CCC[C@@H](C3)N4S(=O)(=O)c3cccnc3)nc3sccc23)n[nH]1` [Embodiment 268]: the half-maximal inhibitory concentration (IC50) at JAK1 turned out to be 0.21 nM; on TYK2 it was 0.19 nM; in series [1], 42.9 nM.

With `Cc1cc(Nc2nc(N[C@@H]3C[C@H]4CC[C@@H](C3)N4CC(=O)N(C)C)nc3ccsc23)n[nH]1` [Embodiment 293, N,N-dimethyl-2-((3-exo)-3-((4-((5-methyl-1H-pyrazol-3-yl)amino)thieno[3,2-d]pyrimidin-2-yl)amino)-8-azabicyclo[3.2.1]oct-8-yl)acetamide], the 50% inhibitory concentration (IC50) came to 3.97 nM on JAK1, 10.8 nM at TYK2 and 16.5 nM in series [1].

With `Cc1cc(Nc2nc(N[C@@H]3C[C@H]4CC[C@@H](C3)N4C(=O)[C@H]3CCCN3)nc3sccc23)n[nH]1` [Embodiment 248, ((3-exo)-3-((4-((5-methyl-1H-pyrazol-3-yl)amino)thieno[2,3-d]pyrimidin-2-yl)amino)-9-azabicyclo[3.3.1]non-9-yl) ((R)-pyrrolidin-2-yl)methanone], the IC50 was 0.44 nM on JAK1, 0.36 nM on TYK2 and 43.5 nM in series [1].

As to `Cc1cc(Nc2cc3nccnc3c(N[C@@H]3C[C@H]4CC[C@@H](C3)N4CCC#N)n2)n[nH]1` [Embodiment 88, 3-((3-exo)-3-((7-((5-methyl-1H-pyrazol-3-yl)amino)pyrido[3,4-b]pyrazin-5-yl)amino)-8-azabicyclo[3.2.1]oct-8-yl)propionitrile], the values for the IC50 (on JAK1; on TYK2; in series [1]) were 1.75 nM, 3.53 nM and 3.1 nM, respectively.

As for `Cc1cc(Nc2nc(N[C@@H]3C[C@H]4CC[C@@H](C3)N4S(=O)(=O)N3CC(C#N)C3)nc3cccnc23)n[nH]1` [Embodiment 220, 1-(((3-exo)-3-((4-((5-methyl-1H-pyrazol-3-yl)amino)pyrido[3,2-d]pyrimidin-2-yl)amino)-8-azabicyclo[3.2.1]oct-8-yl)sulfonyl)azetindin-3-formonitrile], the concentration for half-maximal inhibition (IC50) on JAK1 worked out at 0.67 nM; at TYK2 it was 4.27 nM; in series [1], 10.2 nM.

Take `Cc1cc(Nc2nc(N[C@@H]3C[C@H]4CCC[C@@H](C3)N4CC(=O)N(C)C)nc3sccc23)n[nH]1` [Embodiment 270, N,N-dimethyl-2-((3-exo)-3-((4-((5-methyl-1H-pyrazol-3-yl)amino)thieno[2,3-d]pyrimidin-2-yl)amino)-9-azabicyclo[3.3.1]non-9-yl)acetamide]: the values for the half-inhibitory concentration (IC50) (at JAK1; on TYK2; in series [1]) were 1.22 nM, 5.78 nM and 14.3 nM, respectively.

As for `Cc1cc(Nc2nc(N[C@@H]3C[C@H]4CC[C@@H](C3)N4S(=O)(=O)N3CC(C#N)C3)nc3cc(F)ccc23)n[nH]1` [Embodiment 215, 1-(((3-exo)-3-((7-fluoro-4-((5-methyl-1H-pyrazol-3-yl)amino)quinazolin-2-yl)amino)-8-azabicyclo[3.2.1]oct-8-yl)sulfonyl)azetindin-3-formonitrile], the IC50 turned out to be 0.12 nM at JAK1, 0.27 nM on TYK2 and 24.1 nM in series [1].

In general, IC50 refers to the midpoint of a concentration-inhibition curve. Broadly, the MRT is a mean duration of stay, worked out from the concentration-time curve. Broadly, the Tmax is the time at which the peak concentration occurs.
